# Measured values published in patent publication US11731946B2, “Broad spectrum antivirulence, anti-persistence compounds” (priority 2017, dated 2023).
# Columns and labels:
# Assay type in all cases: cell-based, P. aeruginosa
# [1] = tested on: MvfR regulon; experiment: Quantification of pyocyanin (OD520nm of chloroform-extracted cultures); details: Pseudomonas aeruginosa, read-out: pyocyanin @50 uM (%), compound at 50 uM
# [2] = tested on: MvfR regulon; experiment: pqsA gene expression (pqsA-GFP reporter); details: Pseudomonas aeruginosa; for activity at 50 µM: read-out: pqsA @50 uM (%), compound at 50 uM; for activity at 10 µM: read-out: pqsA @10 uM (%), compound at 10 uM
# Experimental: Experiments were performed to identify compounds that inhibit the MvfR regulon without altering growth, ultimately attenuating P. aeruginosa infection. MvfR is a LysR-type transcriptional regulator that directs HAQs synthesis, including that of its ligands, 4-hydroxy-2-heptylquinoline (HHQ) and 3,4-dihydroxy-2-heptylquinoline (PQS).
# MvfR promotes the production of HAQs by binding to and activating the pqs operon, which encodes enzymes for HAQ synthesis. Anthranilic acid (AA), derived from the phnAB, kynABU, and trpEG pathways, is the precursor for HAQs. pqsA encodes an anthranilate-coenzyme A ligase, which activates anthranilic acid and catalyzes the first committed step to HAQ production. The exact roles of PqsB and PqsC are unknown, though both show homology to acyl-carrier-proteins and both are required for HHQ and PQS production. […] The final gene of the operon, pqsE encodes for a putative hydrolase, and while the protein is not required for the synthesis of HAQs, it is necessary for pyocyanin production.
# Nanomolar levels of most of these MvfR antagonists impeded the activity of MvfR and in consequence the MvfR virulence regulated ACRP functions, including: (1) the production of the important pro-acute P. aeruginosa virulence factor pyocyanin (see e.g., FIG. 9A) the efficacy of two of these potent inhibitors, D57 and D88, was also confirmed by testing many different MDR P. aeruginosa clinical isolates (see e.g., FIG. 11A-11B), providing further confidence of their inhibitory potency; (2) the expression of the genes that encode the enzymes catalyzing the synthesis of both pro-acute and pro-persistence MvfR-regulated virulence molecules, 4-hydroxyl-2-alkyl-quinolines (HAQs) and 2-aminoacetophenon (2-AA), as assessed by pqsAGFP reporter gene expression (see e.g., FIG. 9B) and HAQ production showing the levels of MvfR inducers/ligands HHQ and PQS as well as of the molecules critical for biofilm and Antibiotic tolerant/persiters cells formation HQNO and 2-AA (see e.g., FIG. 9C); (3) AT/P cell formation (see e.g., FIGS. 11A, 12A); (4) biofilm formation (see e.g., FIG. 12B); and (5) biofilm dispersal of preformed biofilm by potentiating antibiotic action (see e.g., FIG. 11B).
# [3] = tested on: MvfR regulon; experiment: LC/MS quantification of HAQs and related molecules in bacterial culture supernatants; details: Pseudomonas aeruginosa
SMILES,activity at 50 µM [1] [%],activity at 50 µM [2] [%],activity at 50 µM ([3]; read-out: 2-AA @50 uM) [%],activity at 50 µM ([3]; read-out: AA @50 uM) [%],activity at 50 µM ([3]; read-out: DHQ @50 uM) [%],activity at 50 µM ([3]; read-out: HHQ @50 uM (%)) [%],activity at 50 µM ([3]; read-out: HQNO @50 uM (%)) [%],activity at 50 µM ([3]; read-out: PQS @50 uM (%)) [%],activity at 10 µM [2] [%],IC50 ([2]; read-out: IC50 pqsA (μM)) [µM]
N#Cc1ccc(NC(=O)CCNc2ccc(F)cc2)cc1 [Compound 46],90.8,79.6,113,101,99.5,97,95.8,97.2,,
CS(=O)(=O)CNc1ccc(NC(=O)CC(=O)Nc2ccc(C#N)cc2)cc1 [Compound 70],99.7,131,94.8,117,80,130,98.3,115,94.7,
N#Cc1ccc(NC(=O)CCNc2ccc(F)cc2F)cc1 [Compound 47],88.3,74.3,100,129,99.3,109,101,108,,
Cc1cc(F)ccc1OCC(=O)Nc1ccc(C#N)cc1 [Compound 6],98.4,98,63.4,,82.7,114,111,114,,
Cc1ccccc1NCC(=O)Nc1ccc(C#N)cc1 [Compound 10],94.3,92.9,63.9,,59.5,76.4,92.5,124,,
CC(=O)Nc1ccc(NC(=O)CC(=O)Nc2ccc(C#N)cc2)cc1 [Compound 68],103,84.8,92.8,56,98.2,74.7,84.6,87.6,94.2,
CC(=O)c1ccc(NC(=O)CC(=O)Nc2ccc(C#N)cc2)cc1 [Compound 63],65.6,28,89.9,131,106,120,101,119,86.5,57.1
N#Cc1ccc(NC(=O)C(=O)Nc2ccc(F)cc2)cc1 [Compound 49],106,96.9,103,89.8,105,97.9,99.5,110,,
N#Cc1ccc(NC(=S)CC(=S)Nc2ccc(F)cc2)cc1 [Compound 60],106,80.7,104,28.2,82.9,66.6,77,83.6,117,
N#Cc1ccc(NC(=O)CNc2ccc(F)cc2)cc1 [Compound 9],85.6,63.2,112,,,87.1,108,124,,
N#Cc1ccc(NC(=O)CC(=O)Nc2ccc(C(=O)C(F)(F)F)cc2)cc1 [Compound 64],84,102,140,176,88.8,107,103,104,107,
Cc1cc(F)ccc1NC(=O)Cc1ccc(C#N)cc1 [Compound 52],115,95.7,113,80.7,84.9,102,109,99.8,,
N#Cc1ccc(NC(=O)CC(=O)Nc2ccc(N)cc2)cc1 [Compound 67],87.2,89.7,101,115,103,92.3,91.7,86.4,97.9,
Cc1cc(F)ccc1NC(=O)CC(=O)Nc1ccc(C#N)cc1 [Compound 62],59.5,43.6,72.7,58.7,84.7,79.6,86.5,83.5,110,
N#Cc1ccc(NC(=O)CC(=O)Nc2ccc(NC(=O)C(F)(F)F)cc2)cc1 [Compound 69],93.8,84.9,117,82.4,108,103,101,101,94.2,
N#Cc1ccc(NC(=O)CCC(=O)Nc2ccc(F)cc2)cc1 [Compound 61],99,77.8,93.6,42.4,93,79,85.5,87.2,112,
Cc1ccccc1N(C)CC(=O)Nc1ccc(C#N)cc1 [Compound 12],96,95.7,63.1,,51.5,73.4,91.2,95.5,,
CN(C(=O)CC(=O)Nc1ccc(C#N)cc1)c1ccc(F)cc1 [Compound 59],110,105,97.3,35.5,91,75.9,85.3,86.6,110,
